{
  "source": "ChEMBL document CHEMBL1201862",
  "about": "“PubChem BioAssay data set” (2004)",
  "key": {"[1]": {"tested_on": "HEK293", "test": "NOD1 signaling inhibitors, primary screen, cell-based, luminescence, uHTS (AID 1578)", "type": "functional", "details": "Homo sapiens"}, "[2]": {"tested_on": "HEK293", "test": "cells", "type": "functional, cell-based", "details": "Homo sapiens"}, "[3]": {"tested_on": "HEK293", "test": "cells", "type": "functional, cell-based", "details": "Homo sapiens", "remark": "listed apart in the source"}, "[4]": {"target": "Nucleotide-binding oligomerization domain-containing protein 2 (Homo sapiens, UniProt Q9HC29)", "test": "NOD2 signaling inhibitors, cell-based, luminescence, uHTS, HEK293 (AID 1566)", "type": "functional"}, "[5]": {"tested_on": "HEK293", "test": "NOD2 signaling inhibitors in MDP-stimulated cells, cell-based, uHTS, luminescence (AID 2001)", "type": "functional", "details": "Homo sapiens"}, "[6]": {"tested_on": "HEK293", "test": "cells", "type": "functional, cell-based", "details": "Homo sapiens", "remark": "listed apart in the source"}, "[7]": {"target": "T1, Microphthalmia-associated transcription factor (Homo sapiens, UniProt O75030)", "T1 sequence (O75030 whole entry)": "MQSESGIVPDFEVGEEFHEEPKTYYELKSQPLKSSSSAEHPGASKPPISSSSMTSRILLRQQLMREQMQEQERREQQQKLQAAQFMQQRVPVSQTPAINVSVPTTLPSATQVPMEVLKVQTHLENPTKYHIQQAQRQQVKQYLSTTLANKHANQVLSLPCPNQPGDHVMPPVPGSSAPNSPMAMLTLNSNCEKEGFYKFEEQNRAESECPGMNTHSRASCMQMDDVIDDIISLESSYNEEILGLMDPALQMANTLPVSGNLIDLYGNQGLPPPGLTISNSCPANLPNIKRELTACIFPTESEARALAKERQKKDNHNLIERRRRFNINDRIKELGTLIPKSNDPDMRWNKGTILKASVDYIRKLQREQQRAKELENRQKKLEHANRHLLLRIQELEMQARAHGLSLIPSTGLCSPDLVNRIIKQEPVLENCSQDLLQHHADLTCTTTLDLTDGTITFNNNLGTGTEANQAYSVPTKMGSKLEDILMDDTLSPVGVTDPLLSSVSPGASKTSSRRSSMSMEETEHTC", "test": "TRPM1 promoter luciferase signal decrease, dose response, MITF inhibitor project, cell-based, SK-MEL-5, cherry-picked, set 3 (AID 493073)", "type": "functional"}, "[8]": {"tested_on": "Vero", "test": "cells", "type": "functional, cell-based", "details": "Chlorocebus sabaeus"}, "[9]": {"tested_on": "A-375", "test": "MITF: Counter assay: A375 proliferation Measured in Cell-Based System Using Plate Reader - 2084-03_Inhibitor_Dose_DryPowder_Activity. [Related pubchem assays (depositor defined):AID488944]", "type": "functional", "details": "Homo sapiens"}, "[10]": {"tested_on": "Vero", "test": "cells", "type": "functional", "details": "Chlorocebus sabaeus"}, "[11]": {"test": "inhibitors of firefly luciferase expression or activity, dose response, H4 neuroglioma cells, luminescence (AID 1990)", "type": "functional, cell-based"}, "[12]": {"test": "luciferase reporter signal reduction – luminescence, H4-C neuroglioblastoma cells, dose response (AID 2458);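 further: H4 neuroglioblastoma cells stably carrying a luciferase reporter gene fusion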", "type": "functional, cell-based"}, "[13]": {"test": "cells", "type": "functional, cell-based"}, "[14]": {"test": "Luminescence Cell-Based Dose Response HTS to Identify Inhibitors of 5'UTR Stem-Loop Driven Prion Protein mRNA Translation in H4 Neuroglioblastoma Cells. [Related pubchem assays: 1827 (Project Summary), 1813 (Primary HTS)]", "type": "functional"}, "[15]": {"test": "inhibitors of SNCA 5'UTR-driven reporter translation, confirmation, H4 neuroglioma cells, luminescence (AID 1988)", "type": "functional, cell-based"}, "[16]": {"test": "inhibitors of SNCA 5'UTR-driven translation, confirmation, luminescence, H4 neuroglioblastoma cells, dose confirmation (AID 2454);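 further: potency for inhibition of the luciferase signal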", "type": "functional, cell-based"}, "[17]": {"test": "cytotoxicity in HEK-293T cells, dose response, cytotoxicity control for BCR NF-kB inhibitor project, luminescence, B-cell screen hits (AID 489021);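 further: cells exposed to compound for about 14 hours before viability readout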", "type": "functional, cell-based"}, "[18]": {"tested_on": "A-375", "test": "A375 melanoma cell viability reduction, dose response, counter-screen for MITF modulator project, cherry-pick samples, set 2 (AID 540335)", "type": "functional, cell-based", "details": "Homo sapiens"}, "[19]": {"target": "T2, Voltage-gated N-type calcium channel alpha-1B subunit/Amyloid beta A4 precursor protein-binding family A member 1 (Homo sapiens, UniProt Q00975+Q02410)", "T2 sequence (Q00975 whole entry)": "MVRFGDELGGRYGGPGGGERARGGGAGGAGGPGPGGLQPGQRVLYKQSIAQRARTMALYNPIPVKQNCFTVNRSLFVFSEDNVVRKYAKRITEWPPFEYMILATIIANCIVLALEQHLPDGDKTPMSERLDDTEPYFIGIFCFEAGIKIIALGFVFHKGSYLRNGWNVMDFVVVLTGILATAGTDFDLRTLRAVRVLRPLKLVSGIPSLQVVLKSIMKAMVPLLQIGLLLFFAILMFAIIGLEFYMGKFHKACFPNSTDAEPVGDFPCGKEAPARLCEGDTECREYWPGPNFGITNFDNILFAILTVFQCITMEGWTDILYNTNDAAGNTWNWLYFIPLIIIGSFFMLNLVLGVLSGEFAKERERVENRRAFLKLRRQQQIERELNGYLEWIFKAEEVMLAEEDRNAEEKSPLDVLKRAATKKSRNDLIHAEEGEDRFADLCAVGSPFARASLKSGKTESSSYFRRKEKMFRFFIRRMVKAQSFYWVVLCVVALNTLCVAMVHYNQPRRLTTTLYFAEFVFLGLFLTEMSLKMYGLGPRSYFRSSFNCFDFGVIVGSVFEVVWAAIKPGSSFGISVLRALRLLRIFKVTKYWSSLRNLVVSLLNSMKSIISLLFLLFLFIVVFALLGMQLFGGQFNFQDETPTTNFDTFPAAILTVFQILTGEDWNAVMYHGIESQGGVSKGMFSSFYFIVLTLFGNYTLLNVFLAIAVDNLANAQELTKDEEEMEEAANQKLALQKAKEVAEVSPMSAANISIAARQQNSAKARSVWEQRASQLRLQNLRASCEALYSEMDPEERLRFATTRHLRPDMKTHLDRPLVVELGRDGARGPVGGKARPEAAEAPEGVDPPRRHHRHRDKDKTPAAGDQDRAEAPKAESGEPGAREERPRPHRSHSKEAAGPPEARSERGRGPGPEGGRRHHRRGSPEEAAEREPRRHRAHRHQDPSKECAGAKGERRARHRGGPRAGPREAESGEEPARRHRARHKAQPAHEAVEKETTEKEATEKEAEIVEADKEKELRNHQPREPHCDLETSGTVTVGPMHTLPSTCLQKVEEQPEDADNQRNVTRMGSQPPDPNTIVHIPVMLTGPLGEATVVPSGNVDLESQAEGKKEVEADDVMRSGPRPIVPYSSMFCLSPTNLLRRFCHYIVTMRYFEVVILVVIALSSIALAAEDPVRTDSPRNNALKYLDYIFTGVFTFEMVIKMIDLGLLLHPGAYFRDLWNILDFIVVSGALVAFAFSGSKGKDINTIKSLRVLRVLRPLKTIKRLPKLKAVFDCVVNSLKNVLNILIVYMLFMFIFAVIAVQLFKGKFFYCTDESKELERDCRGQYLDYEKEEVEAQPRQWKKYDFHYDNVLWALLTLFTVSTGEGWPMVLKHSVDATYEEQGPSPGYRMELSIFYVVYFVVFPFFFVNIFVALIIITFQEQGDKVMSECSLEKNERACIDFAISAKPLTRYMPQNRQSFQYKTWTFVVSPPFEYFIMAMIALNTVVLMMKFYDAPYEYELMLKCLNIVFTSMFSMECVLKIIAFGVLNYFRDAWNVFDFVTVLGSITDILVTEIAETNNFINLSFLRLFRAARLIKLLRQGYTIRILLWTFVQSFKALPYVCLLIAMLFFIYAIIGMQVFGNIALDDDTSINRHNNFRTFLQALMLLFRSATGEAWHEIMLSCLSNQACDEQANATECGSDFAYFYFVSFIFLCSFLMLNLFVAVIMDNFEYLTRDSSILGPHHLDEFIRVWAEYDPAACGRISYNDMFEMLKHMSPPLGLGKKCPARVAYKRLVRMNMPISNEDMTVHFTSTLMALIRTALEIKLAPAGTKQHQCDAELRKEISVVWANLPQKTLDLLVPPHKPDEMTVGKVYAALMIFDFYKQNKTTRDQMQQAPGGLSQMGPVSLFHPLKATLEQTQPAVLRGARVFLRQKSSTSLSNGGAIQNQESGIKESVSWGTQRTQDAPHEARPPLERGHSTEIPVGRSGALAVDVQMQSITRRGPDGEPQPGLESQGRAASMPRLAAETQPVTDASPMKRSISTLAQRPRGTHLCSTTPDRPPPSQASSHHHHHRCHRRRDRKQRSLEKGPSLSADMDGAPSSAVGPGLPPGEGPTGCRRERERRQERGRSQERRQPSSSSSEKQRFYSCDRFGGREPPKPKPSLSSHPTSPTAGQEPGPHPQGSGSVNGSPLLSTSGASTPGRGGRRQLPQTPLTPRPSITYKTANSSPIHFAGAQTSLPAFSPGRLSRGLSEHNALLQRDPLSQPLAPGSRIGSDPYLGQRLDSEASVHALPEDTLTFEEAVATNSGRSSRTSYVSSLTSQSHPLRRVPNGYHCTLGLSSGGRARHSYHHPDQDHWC", "T2 sequence (Q02410 whole entry)": "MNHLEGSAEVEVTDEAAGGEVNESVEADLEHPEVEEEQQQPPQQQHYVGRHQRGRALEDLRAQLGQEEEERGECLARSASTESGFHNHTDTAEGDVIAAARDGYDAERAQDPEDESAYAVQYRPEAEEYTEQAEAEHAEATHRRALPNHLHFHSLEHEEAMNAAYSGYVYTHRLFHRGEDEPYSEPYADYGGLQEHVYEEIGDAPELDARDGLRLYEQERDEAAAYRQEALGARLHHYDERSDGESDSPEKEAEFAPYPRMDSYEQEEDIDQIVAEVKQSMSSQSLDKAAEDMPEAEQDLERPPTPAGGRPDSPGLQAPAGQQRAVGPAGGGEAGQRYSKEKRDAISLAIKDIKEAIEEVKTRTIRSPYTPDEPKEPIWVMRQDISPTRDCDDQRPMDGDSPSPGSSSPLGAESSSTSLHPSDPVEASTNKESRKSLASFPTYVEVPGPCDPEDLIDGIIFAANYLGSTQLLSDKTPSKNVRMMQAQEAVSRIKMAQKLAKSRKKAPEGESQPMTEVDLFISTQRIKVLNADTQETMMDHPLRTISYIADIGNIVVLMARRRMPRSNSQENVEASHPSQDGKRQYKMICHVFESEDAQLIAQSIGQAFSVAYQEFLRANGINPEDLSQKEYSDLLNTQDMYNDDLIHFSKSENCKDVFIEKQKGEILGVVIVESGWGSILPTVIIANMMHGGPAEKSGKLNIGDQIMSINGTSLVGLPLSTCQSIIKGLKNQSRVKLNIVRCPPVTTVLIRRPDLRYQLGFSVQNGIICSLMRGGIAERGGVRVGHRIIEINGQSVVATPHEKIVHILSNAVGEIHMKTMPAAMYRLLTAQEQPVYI", "type": "protein assay"}, "[20]": {"target": "T2, Voltage-gated N-type calcium channel alpha-1B subunit/Amyloid beta A4 precursor protein-binding family A member 1", "type": "protein assay", "remark": "listed apart in the source"}, "[21]": {"target": "T3, Neuropeptides B/W receptor type 1 (Homo sapiens, UniProt P48145)", "T3 sequence (P48145 whole entry)": "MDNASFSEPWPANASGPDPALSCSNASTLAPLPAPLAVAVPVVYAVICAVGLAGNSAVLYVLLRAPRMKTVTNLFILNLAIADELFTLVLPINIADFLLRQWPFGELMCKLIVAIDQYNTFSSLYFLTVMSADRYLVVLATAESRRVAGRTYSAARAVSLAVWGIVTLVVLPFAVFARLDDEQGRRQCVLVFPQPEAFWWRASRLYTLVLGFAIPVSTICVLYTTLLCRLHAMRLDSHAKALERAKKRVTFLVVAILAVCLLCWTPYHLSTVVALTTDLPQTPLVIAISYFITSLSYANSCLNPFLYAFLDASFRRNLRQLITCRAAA", "test": "Fluorescence-based dose response cell-based high throughput screening assay to identify antagonists of the G-protein coupled receptor 7 (GPR7). [Related pubchem assays: 1952 (Screening assay (GPR7 antagonists).), 1880 (Summary AID.)]", "type": "functional"}, "[22]": {"target": "Melanin-concentrating hormone receptor 1 (Homo sapiens, UniProt Q99705)", "sequence (Q99705 whole entry)": "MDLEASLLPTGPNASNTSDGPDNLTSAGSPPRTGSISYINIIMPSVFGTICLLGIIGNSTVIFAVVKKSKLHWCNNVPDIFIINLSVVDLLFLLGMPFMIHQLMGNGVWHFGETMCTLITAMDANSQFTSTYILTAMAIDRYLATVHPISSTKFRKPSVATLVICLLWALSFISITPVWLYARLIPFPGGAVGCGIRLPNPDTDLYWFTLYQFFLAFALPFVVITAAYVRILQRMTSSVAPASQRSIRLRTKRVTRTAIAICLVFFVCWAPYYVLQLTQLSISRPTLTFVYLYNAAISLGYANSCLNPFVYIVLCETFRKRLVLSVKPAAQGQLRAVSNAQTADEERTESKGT", "test": "Fluorescence-based counterscreen for antagonists of the G-protein coupled receptor 7 (GPR7): cell-based high throughput dose response assay to identify antagonists of the melanin-concentrating hormone receptor 1 (MCHR1).", "type": "functional"}, "[23]": {"target": "T4, CAAX prenyl protease 2 (Saccharomyces cerevisiae S288c, UniProt Q03530)", "T4 sequence (Q03530 whole entry)": "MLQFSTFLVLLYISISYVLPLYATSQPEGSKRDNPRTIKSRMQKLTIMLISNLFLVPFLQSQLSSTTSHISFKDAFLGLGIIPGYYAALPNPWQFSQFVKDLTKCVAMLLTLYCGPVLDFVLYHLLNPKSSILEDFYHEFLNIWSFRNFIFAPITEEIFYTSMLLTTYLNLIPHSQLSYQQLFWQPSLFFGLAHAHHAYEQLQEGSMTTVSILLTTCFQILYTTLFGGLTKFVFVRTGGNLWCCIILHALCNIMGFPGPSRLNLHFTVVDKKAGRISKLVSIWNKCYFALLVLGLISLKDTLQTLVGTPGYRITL", "type": "biochemical"}, "[24]": {"target": "Eukaryotic translation initiation factor 4E (Mus musculus, UniProt P63073)", "sequence (P63073 whole entry)": "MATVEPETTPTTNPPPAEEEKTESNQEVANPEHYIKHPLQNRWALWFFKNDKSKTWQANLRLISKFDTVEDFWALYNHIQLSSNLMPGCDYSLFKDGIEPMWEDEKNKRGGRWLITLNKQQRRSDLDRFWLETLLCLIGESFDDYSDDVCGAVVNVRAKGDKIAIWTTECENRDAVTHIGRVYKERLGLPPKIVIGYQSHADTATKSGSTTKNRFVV", "test": "eIF4E–eIF4G protein interaction inhibitors, dose response, biochemical, TR-FRET (AID 855);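 further: potency for disrupting eIF4E binding to eIF4GI seen as loss of FRET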", "type": "functional"}, "[25]": {"target": "Glyceraldehyde-3-phosphate dehydrogenase (Homo sapiens, UniProt P04406)", "sequence (P04406 whole entry)": "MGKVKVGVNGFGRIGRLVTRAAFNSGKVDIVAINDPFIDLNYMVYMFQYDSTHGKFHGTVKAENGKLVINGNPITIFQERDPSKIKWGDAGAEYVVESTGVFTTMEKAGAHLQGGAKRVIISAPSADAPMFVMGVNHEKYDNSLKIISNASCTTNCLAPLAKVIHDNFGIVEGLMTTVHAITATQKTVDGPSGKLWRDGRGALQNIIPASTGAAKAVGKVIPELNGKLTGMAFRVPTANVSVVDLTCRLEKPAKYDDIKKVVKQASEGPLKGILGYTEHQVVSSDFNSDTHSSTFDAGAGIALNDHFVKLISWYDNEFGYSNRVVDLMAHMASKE"}, "[26]": {"target": "Alkaline phosphatase, placental type (Homo sapiens, UniProt P05187)", "sequence (P05187 whole entry)": "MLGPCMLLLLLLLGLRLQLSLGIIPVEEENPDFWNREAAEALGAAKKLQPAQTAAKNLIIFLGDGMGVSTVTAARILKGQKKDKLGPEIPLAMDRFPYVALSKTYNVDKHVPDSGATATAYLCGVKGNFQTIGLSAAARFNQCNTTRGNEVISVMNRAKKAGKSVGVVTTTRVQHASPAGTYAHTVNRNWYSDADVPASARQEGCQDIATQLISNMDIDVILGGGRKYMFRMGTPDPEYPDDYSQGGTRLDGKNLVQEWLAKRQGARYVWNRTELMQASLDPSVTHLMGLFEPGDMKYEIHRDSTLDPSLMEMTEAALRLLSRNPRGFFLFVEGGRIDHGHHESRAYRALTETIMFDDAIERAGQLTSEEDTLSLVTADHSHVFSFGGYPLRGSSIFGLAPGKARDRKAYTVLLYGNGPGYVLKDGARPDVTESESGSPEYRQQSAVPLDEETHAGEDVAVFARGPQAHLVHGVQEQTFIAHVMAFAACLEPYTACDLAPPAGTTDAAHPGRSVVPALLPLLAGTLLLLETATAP", "test": "PLAP enzyme inhibitors, confirmation, biochemical, luminescence (AID 1512)", "type": "functional"}, "[27]": {"target": "T5, Alkaline phosphatase, tissue-nonspecific isozyme (Homo sapiens, UniProt P05186)", "T5 sequence (P05186 whole entry)": "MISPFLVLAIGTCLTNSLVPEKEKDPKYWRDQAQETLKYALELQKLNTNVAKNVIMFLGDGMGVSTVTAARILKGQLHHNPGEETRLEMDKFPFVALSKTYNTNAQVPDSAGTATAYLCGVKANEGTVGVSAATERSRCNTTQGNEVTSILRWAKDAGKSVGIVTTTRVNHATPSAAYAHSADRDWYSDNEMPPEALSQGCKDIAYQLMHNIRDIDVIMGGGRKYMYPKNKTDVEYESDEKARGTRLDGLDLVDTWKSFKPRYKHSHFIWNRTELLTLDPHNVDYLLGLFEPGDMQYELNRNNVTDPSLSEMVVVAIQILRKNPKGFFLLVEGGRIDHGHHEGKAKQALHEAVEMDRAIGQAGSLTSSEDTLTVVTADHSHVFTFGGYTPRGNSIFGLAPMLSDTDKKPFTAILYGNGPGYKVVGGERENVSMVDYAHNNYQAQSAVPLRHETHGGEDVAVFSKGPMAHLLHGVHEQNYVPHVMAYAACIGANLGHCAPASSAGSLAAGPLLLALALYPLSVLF", "test": "human TNAP enzyme inhibitors, SAR follow-up, biochemical, luminescent, dose response (AID 1056)"}},
  "note": "Calls of active or inactive are those of the source.",
  "data": [
    {"smiles": "CC1CCCCC1NC(=O)/C(C#N)=C/C=C/c1ccccc1[N+](=O)[O-]", "note": "(configuration not stated)", "values": [
      {"measurement": "EC50", "setting": "[1]", "value": "> 20 µM (inactive)"},
      {"measurement": "IC50", "setting": "[2]", "value": "3.59 µM (active)"},
      {"measurement": "IC50", "setting": "[3]", "value": "> 20 µM (inactive)"},
      {"measurement": "EC50", "setting": "[4]", "value": "> 20 µM (inactive)"},
      {"measurement": "IC50", "setting": "[5]", "value": "4.85 µM (inactive)"},
      {"measurement": "IC50", "setting": "[6]", "value": "> 20 µM (inactive)"},
      {"measurement": "AC50", "setting": "[7]", "value": "7.92 µM (active)"},
      {"measurement": "IC50", "setting": "[8]", "value": "13.3 µM (active)"},
      {"measurement": "AC50", "setting": "[9]", "value": "31.9 µM (active)"},
      {"measurement": "CC50", "setting": "[10]", "value": "15.6 µM (active)"}
    ]},
    {"smiles": "CC(C)(C)c1ccc(-c2cc(N)[nH]n2)cc1", "values": [
      {"measurement": "EC50", "setting": "[11]", "value": "< 0.1 µM (active)"},
      {"measurement": "EC50", "setting": "[12]", "value": "0.403 µM (active)"},
      {"measurement": "EC50", "setting": "[13]", "value": "1.34 µM (active)"},
      {"measurement": "EC50", "setting": "[14]", "value": "7.28 µM (active)"},
      {"measurement": "EC50", "setting": "[15]", "value": "< 0.1 µM (active)"},
      {"measurement": "EC50", "setting": "[16]", "value": "0.677 µM (active)"},
      {"measurement": "AC50", "setting": "[7]", "value": "0.511 µM (active)"},
      {"measurement": "IC50", "setting": "[17]", "value": "> 80 µM (inactive)"},
      {"measurement": "AC50", "setting": "[9]", "value": "> 35 µM (active)"},
      {"measurement": "AC50", "setting": "[18]", "value": "> 35 µM (active)"}
    ]},
    {"smiles": "CN1C(=O)C(Cl)(Cl)C(=O)c2ccccc21", "values": [
      {"measurement": "IC50", "setting": "[19]", "value": "34.5 µM (active)"},
      {"measurement": "IC50", "setting": "[20]", "value": "2.75 µM (active)"}
    ]},
    {"smiles": "COc1ccc(S(=O)(=O)N2CCN(CC(=O)Nc3cccc(OC)c3)CC2)cc1", "values": [
      {"measurement": "IC50", "setting": "[21]", "value": "> 43.8 µM (not active)"},
      {"measurement": "IC50", "setting": "[22]", "value": "> 43.8 µM (not active)"}
    ]},
    {"smiles": "CC(C)c1ccc(/C=C2\\SC(=S)N(CCC(=O)NCCCn3ccnc3)C2=O)cc1", "values": [
      {"measurement": "AC50", "setting": "[23]", "value": "> 100 µM (inactive)"},
      {"measurement": "IC50", "setting": "[17]", "value": "> 80 µM (inactive)"}
    ]},
    {"smiles": "CC1CCCCN1C(=O)Cn1c(=O)n(-c2ccc(F)cc2)c(=O)c2sccc21", "note": "(configuration not stated)", "values": [
      {"measurement": "IC50", "setting": "[24]", "value": "50 µM (inactive)"}
    ]},
    {"smiles": "CC(C)c1nc(N)nn1-c1ccccc1", "values": [
      {"measurement": "IC50", "setting": "[25]", "value": "> 100 µM (not active)"},
      {"measurement": "IC50", "setting": "[26]", "value": "> 100 µM (inactive)"},
      {"measurement": "IC50", "setting": "[27]", "value": "> 100 µM (inactive)"}
    ]},
    {"smiles": "O=C(CNc1ccncc1)c1ccc(O)c(O)c1", "values": [
      {"measurement": "IC50", "setting": "[26]", "value": "> 100 µM (inactive)"},
      {"measurement": "IC50", "setting": "[27]", "value": "> 100 µM (inactive)"}
    ]}
  ]
}
